Source: the supplement of paper PMC10307832

Columns and labels:
Test in all cases: relative viability (nuclei count vs DMSO), 5 days (fraction); higher = more cells survive
[1] = compound: CC1CC(=O)N(C2=CN=C(N=C2N1C3CCCC3)NC4=C(C=C(C=C4)C(=O)NC5CCN(CC5)C)OC)C [NPK76-II-72-1] + N=C(N)NC(=N)NCCc1ccccc1 [Phenformin] (partner 250 µM)
How it was run: (§1)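 Five library-drug doses in √10 steps were combined with a fixed anchor-drug dose, or a single drug was given alone, by pin tool to lung cancer cell lines in 1536-well plates the day after seeding. Nuclei were stained and counted after 5 days. Relative viability is the nuclei count in treated wells over that in vehicle wells, taken as the median of duplicate plates.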

BI-2536 + Trametinib = compound: CC[C@@H]1C(=O)N(C)c2cnc(Nc3ccc(C(=O)NC4CCN(C)CC4)cc3OC)nc2N1C1CCCC1 [BI-2536] + CC(=O)Nc1cccc(-n2c(=O)n(C3CC3)c(=O)c3c(Nc4ccc(I)cc4F)n(C)c(=O)c(C)c32)c1 [Trametinib] (partner 0.02 µM)
How it was run: as §1

BI-2536 + Pictilisib = compound: CC[C@@H]1C(=O)N(C)c2cnc(Nc3ccc(C(=O)NC4CCN(C)CC4)cc3OC)nc2N1C1CCCC1 [BI-2536] + CS(=O)(=O)N1CCN(Cc2cc3nc(-c4cccc5[nH]ncc45)nc(N4CCOCC4)c3s2)CC1 [Pictilisib] (partner 1 µM)
How it was run: as §1

BI-2536 + Vorinostat = compound: CC[C@@H]1C(=O)N(C)c2cnc(Nc3ccc(C(=O)NC4CCN(C)CC4)cc3OC)nc2N1C1CCCC1 [BI-2536] + O=C(CCCCCCC(=O)Nc1ccccc1)NO [Vorinostat] (partner 1 µM)
How it was run: as §1

Row | Cell Line | relative viability ([1]; first compound 0.01 µM) | relative viability ([1]; first compound 0.03162 µM) | relative viability ([1]; first compound 0.1 µM) | relative viability ([1]; first compound 0.3162 µM) | relative viability ([1]; first compound 1 µM) | relative viability (BI-2536 + Trametinib; first compound 0.01 µM) | relative viability (BI-2536 + Trametinib; first compound 0.03162 µM) | relative viability (BI-2536 + Trametinib; first compound 0.1 µM) | relative viability (BI-2536 + Trametinib; first compound 0.3162 µM) | relative viability (BI-2536 + Trametinib; first compound 1 µM) | relative viability (BI-2536 + Pictilisib; first compound 0.01 µM) | relative viability (BI-2536 + Pictilisib; first compound 0.03162 µM) | relative viability (BI-2536 + Pictilisib; first compound 0.1 µM) | relative viability (BI-2536 + Pictilisib; first compound 0.3162 µM) | relative viability (BI-2536 + Pictilisib; first compound 1 µM) | relative viability (BI-2536 + Vorinostat; first compound 0.01 µM) | relative viability (BI-2536 + Vorinostat; first compound 0.03162 µM) | relative viability (BI-2536 + Vorinostat; first compound 0.1 µM) | relative viability (BI-2536 + Vorinostat; first compound 0.3162 µM) | relative viability (BI-2536 + Vorinostat; first compound 1 µM)
1 | NCI-H647 | 0.46 | 0.676 | 0.629 | 0.623 | 0.533 | 0.482 | 0.458 | 0.213 | 0.087 | 0.0808 | 0.396 | 0.376 | 0.129 | 0.0762 | 0.0954 | 0.526 | 0.372 | 0.236 | 0.086 | 0.0837
2 | HCC-78 | 0.695 | 0.684 | 0.684 | 0.692 | 0.665 | 0.829 | 0.837 | 0.814 | 0.562 | 0.246 | 0.26 | 0.25 | 0.166 | 0.13 | 0.0467 | 0.421 | 0.49 | 0.379 | 0.268 | 0.27
3 | NCI-H1755 | 0.605 | 0.634 | 0.575 | 0.647 | 0.654 | 0.78 | 0.784 | 0.689 | 0.367 | 0.363 | 0.424 | 0.399 | 0.157 | 0.151 | 0.175 | 0.833 | 0.595 | 0.426 | 0.34 | 0.329
4 | NCI-H3122 | 0.374 | 0.378 | 0.389 | 0.378 | 0.38 | 0.226 | 0.239 | 0.209 | 0.131 | 0.171 | 0.55 | 0.555 | 0.153 | 0.23 | 0.201 | 0.928 | 0.779 | 0.179 | 0.149 | 0.151
5 | PC-14 | 0.562 | 0.462 | 0.585 | 0.585 | 0.628 | 0.847 | 0.71 | 0.0723 | 0.0556 | 0.0339 | 0.688 | 0.563 | 0.156 | 0.0423 | 0.0236 | 0.809 | 0.387 | 0.0698 | 0.0322 | 0.0218
6 | NCI-H2347 | 0.413 | 0.432 | 0.514 | 0.521 | 0.395 | 0.261 | 0.302 | 0.282 | 0.264 | 0.238 | 0.471 | 0.523 | 0.596 | 0.463 | 0.32 | 0.509 | 0.591 | 0.456 | 0.436 | 0.336
7 | NCI-H2228 | 0.301 | 0.345 | 0.328 | 0.324 | 0.296 | 0.312 | 0.51 | 0.184 | 0.107 | 0.089 | 0.39 | 0.374 | 0.218 | 0.13 | 0.165 | 0.823 | 0.468 | 0.106 | 0.134 | 0.0804
8 | NCI-H1793 | 0.3 | 0.387 | 0.38 | 0.31 | 0.432 | 0.37 | 0.435 | 0.251 | 0.177 | 0.183 | 0.294 | 0.214 | 0.191 | 0.174 | 0.159 | 0.695 | 0.352 | 0.17 | 0.117 | 0.18
9 | EKVX | 0.221 | 0.237 | 0.225 | 0.147 | 0.252 | 0.313 | 0.343 | 0.379 | 0.155 | 0.151 | 0.47 | 0.483 | 0.444 | 0.14 | 0.123 | 0.875 | 0.729 | 0.676 | 0.407 | 0.208
10 | HOP-62 | 0.622 | 0.648 | 0.615 | 0.637 | 0.683 | 0.315 | 0.353 | 0.401 | 0.167 | 0.152 | 0.704 | 0.965 | 0.159 | 0.0849 | 0.127 | 0.528 | 0.74 | 0.188 | 0.104 | 0.13
11 | NCI-H2126 | 0.52 | 0.532 | 0.508 | 0.525 | 0.557 | 0.622 | 0.597 | 0.517 | 0.234 | 0.228 | 0.509 | 0.48 | 0.27 | 0.247 | 0.253 | 0.8 | 0.832 | 0.243 | 0.218 | 0.177
12 | SW 1573 | 0.33 | 0.438 | 0.33 | 0.319 | 0.452 | 0.515 | 0.51 | 0.117 | 0.103 | 0.0762 | 0.477 | 0.479 | 0.263 | 0.142 | 0.118 | 0.677 | 0.437 | 0.101 | 0.0801 | 0.113
13 | NCI-H358 | 0.324 | 0.382 | 0.32 | – | 0.372 | 0.146 | 0.126 | 0.11 | 0.0815 | 0.0734 | 0.338 | 0.235 | 0.18 | 0.14 | 0.15 | 0.507 | 0.138 | 0.0931 | 0.0884 | 0.0847
14 | EPLC-272H | 0.304 | – | 0.259 | 0.229 | 0.343 | 0.286 | 0.261 | 0.191 | 0.12 | 0.166 | 0.343 | 0.256 | – | 0.233 | 0.151 | 0.339 | 0.126 | 0.0766 | 0.112 | 0.0972
15 | PC-3 [JPC-3] | 0.475 | 0.484 | 0.487 | 0.453 | 0.472 | 0.71 | 0.583 | 0.616 | 0.357 | 0.438 | 0.682 | 0.769 | 0.441 | 0.268 | 0.291 | 0.857 | 0.677 | 0.416 | 0.306 | 0.291
16 | NCI-H650 | 0.441 | 0.457 | 0.454 | 0.381 | 0.486 | 0.847 | 0.956 | 0.858 | 0.152 | 0.16 | 0.849 | 0.584 | 0.245 | 0.206 | 0.15 | 0.418 | 0.479 | 0.145 | 0.154 | 0.128
17 | NCI-H838 | 0.532 | 0.585 | 0.657 | 0.629 | 0.556 | 0.532 | 0.625 | 0.478 | 0.081 | 0.0789 | 0.44 | 0.393 | 0.203 | 0.118 | 0.122 | 0.766 | 0.668 | 0.371 | 0.152 | 0.141
18 | COR-L 105 | 0.491 | 0.541 | 0.409 | 0.474 | 0.551 | 0.463 | 0.454 | 0.394 | 0.267 | 0.297 | 0.437 | 0.358 | 0.23 | 0.237 | 0.216 | 0.959 | 0.79 | 0.52 | 0.349 | 0.334
19 | NCI-H2405 | 0.379 | 0.386 | 0.4 | 0.35 | 0.419 | 0.607 | 0.549 | 0.441 | 0.277 | 0.357 | 0.369 | 0.391 | 0.265 | 0.0965 | 0.201 | 0.981 | 0.608 | 0.35 | 0.278 | 0.337
20 | NCI-H1395 | 0.466 | 0.422 | 0.457 | 0.429 | 0.405 | 1.06 | 0.635 | 0.611 | 0.353 | 0.369 | 0.622 | 0.524 | 0.747 | 0.339 | 0.357 | 0.669 | 0.431 | 0.285 | 0.311 | 0.356
21 | NCI-H661 | 0.278 | 0.255 | 0.282 | 0.279 | 0.245 | 0.587 | 0.427 | 0.291 | 0.238 | 0.264 | 0.411 | 0.37 | 0.255 | 0.247 | 0.217 | 0.714 | 0.323 | 0.292 | 0.302 | 0.306
22 | NCI-H1915 | 0.363 | 0.39 | 0.363 | 0.34 | 0.357 | 0.29 | 0.332 | 0.317 | 0.0844 | 0.0806 | 0.866 | 0.899 | 0.264 | 0.074 | 0.0908 | 0.464 | 0.478 | 0.295 | 0.0928 | 0.0626
23 | CAL-12T | 0.563 | 0.56 | 0.562 | 0.554 | 0.619 | 0.344 | 0.338 | 0.383 | 0.147 | 0.157 | 0.536 | 0.401 | 0.178 | 0.181 | 0.141 | 0.817 | 0.695 | 0.278 | 0.147 | 0.129
24 | LXF-289 | 0.531 | 0.587 | 0.503 | 0.516 | 0.497 | 0.68 | 0.654 | 0.64 | 0.12 | 0.102 | 0.839 | 0.759 | 0.126 | 0.0466 | 0.0562 | 0.855 | 0.684 | 0.372 | 0.0658 | 0.0936
25 | NCI-H460 | 0.501 | 0.512 | 0.582 | 0.522 | 0.522 | 0.205 | 0.154 | 0.0447 | 0.0185 | 0.0133 | 0.276 | 0.375 | 0.33 | 0.0337 | 0.0494 | 0.735 | 1.07 | 0.119 | 0.0148 | 0.014
26 | NCI-H1944 | 0.197 | 0.197 | 0.198 | 0.187 | 0.211 | 0.392 | 0.427 | 0.439 | 0.144 | 0.186 | 0.339 | 0.336 | 0.295 | 0.157 | 0.17 | 0.623 | 0.623 | 0.237 | 0.139 | 0.154
27 | NCI-H2009 | 0.491 | 0.513 | 0.446 | 0.462 | 0.477 | 0.262 | 0.246 | 0.336 | 0.131 | 0.159 | 0.779 | 0.358 | 0.179 | 0.137 | 0.103 | 0.745 | 0.689 | 0.373 | 0.193 | 0.152
